Experimental data from ChEMBL document CHEMBL1139112, “Solid-phase analogue synthesis of caspase-3 inhibitors via palladium-catalyzed amination of 3-bromopyrazinones” (Bioorg Med Chem Lett, 2007).

Assays:
Caspase-7 = target: T1, Caspase-7 (Homo sapiens, UniProt P55210); test: Inhibition of human recombinant caspase 7
T1 sequence (P55210 whole entry): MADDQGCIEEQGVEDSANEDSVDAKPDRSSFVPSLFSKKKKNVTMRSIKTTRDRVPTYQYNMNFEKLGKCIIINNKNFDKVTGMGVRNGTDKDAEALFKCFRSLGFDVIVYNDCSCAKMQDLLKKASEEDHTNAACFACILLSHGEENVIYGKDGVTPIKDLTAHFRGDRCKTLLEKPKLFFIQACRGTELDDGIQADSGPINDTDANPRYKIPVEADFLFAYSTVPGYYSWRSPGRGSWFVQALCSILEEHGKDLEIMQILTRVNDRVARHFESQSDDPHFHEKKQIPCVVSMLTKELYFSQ

Caspase-3 [1] = target: T2, Caspase-3 (Homo sapiens, UniProt P42574); test: Inhibition of human recombinant caspase 3
T2 sequence (P42574 whole entry): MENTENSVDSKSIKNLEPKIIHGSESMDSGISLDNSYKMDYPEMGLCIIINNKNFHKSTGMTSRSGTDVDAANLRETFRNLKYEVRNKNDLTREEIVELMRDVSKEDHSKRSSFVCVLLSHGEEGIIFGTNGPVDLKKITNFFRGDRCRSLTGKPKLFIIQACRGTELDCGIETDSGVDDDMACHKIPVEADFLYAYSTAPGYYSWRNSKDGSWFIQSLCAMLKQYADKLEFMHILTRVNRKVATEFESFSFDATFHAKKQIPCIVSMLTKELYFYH

Caspase-1 = target: T3, Caspase-1 (Homo sapiens, UniProt P29466); test: Inhibition of human recombinant caspase 1
T3 sequence (P29466 whole entry): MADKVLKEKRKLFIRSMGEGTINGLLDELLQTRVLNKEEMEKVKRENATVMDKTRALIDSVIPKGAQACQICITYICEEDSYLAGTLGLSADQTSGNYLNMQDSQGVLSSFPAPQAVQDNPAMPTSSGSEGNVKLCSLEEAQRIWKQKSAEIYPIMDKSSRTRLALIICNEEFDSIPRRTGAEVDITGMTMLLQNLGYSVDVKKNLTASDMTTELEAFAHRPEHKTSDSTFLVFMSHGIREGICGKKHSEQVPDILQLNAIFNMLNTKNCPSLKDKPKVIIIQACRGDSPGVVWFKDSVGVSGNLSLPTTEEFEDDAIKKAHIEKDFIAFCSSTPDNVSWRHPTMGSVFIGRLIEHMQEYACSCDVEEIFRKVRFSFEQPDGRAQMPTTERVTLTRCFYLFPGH

Caspase-8 = Caspase-8 (Homo sapiens, UniProt Q14790); test: Inhibition of human recombinant caspase 8
Chain of Caspase-8 (Q14790 217-374 limits assumed): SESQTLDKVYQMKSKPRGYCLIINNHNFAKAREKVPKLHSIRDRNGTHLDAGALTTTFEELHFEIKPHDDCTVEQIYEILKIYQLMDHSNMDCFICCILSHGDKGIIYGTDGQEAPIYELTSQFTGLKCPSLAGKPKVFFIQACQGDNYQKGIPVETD
Chain of Caspase-8 (Q14790 385-479 limits assumed): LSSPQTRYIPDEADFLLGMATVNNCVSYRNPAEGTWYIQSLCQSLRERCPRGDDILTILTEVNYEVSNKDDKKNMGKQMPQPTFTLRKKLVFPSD

Caspase-3 [2] = target: T2, Caspase-3; test: Inhibition of human recombinant caspase 3 in NT2 by whole cell assay

SMILES | IC50 (Caspase-7) [nM] | IC50 (Caspase-3 [1]) [nM] | IC50 (Caspase-1) [nM] | IC50 (Caspase-8) [nM] | IC50 (Caspase-3 [2]) [µM]
CCC(C(=O)N[C@@H](CC(=O)O)C(=O)CCCc1ccccc1)n1cc(C(C)(C)C)nc(Nc2ccc3c(c2)OCCO3)c1=O (stereo partly specified) | 280 | 28 | 330 | 1000 | –
CCC(C(=O)N[C@@H](CC(=O)O)C(=O)CCCc1ccccc1)n1cc(C(C)(C)C)nc(NCc2cc(OC)cc(OC)c2)c1=O (stereo partly specified) | 800 | 160 | 320 | 3050 | –
CCCCCCN(C)CC(=O)[C@H](CC(=O)O)NC(=O)C(CC)n1cc(C(C)(C)C)nc(Nc2nnn[nH]2)c1=O (stereo partly specified) | 64.7 | 6.6 | 3.4 | 163 | 6.07

Other lines, results leading:

IC50 (Caspase-7) [nM] | IC50 (Caspase-3 [1]) [nM] | IC50 (Caspase-1) [nM] | IC50 (Caspase-8) [nM] | IC50 (Caspase-3 [2]) [µM] | SMILES
8 | 5 | 9 | 14 | 19.4 | CCC(C(=O)N[C@@H](CC(=O)O)C(=O)CCCc1ccccc1)n1cc(C(C)(C)C)nc(Nc2nnn[nH]2)c1=O (stereo partly specified)
3490 | 100 | 5490 | > 10000 | – | CCC(C(=O)N[C@@H](CC(=O)O)C(=O)CCCc1ccccc1)n1cc(C(C)(C)C)nc(NC(CC(C)C)C(=O)O)c1=O (stereo partly specified)
920 | 50 | 2310 | 300 | – | CCC(C(=O)N[C@@H](CC(=O)O)C(=O)CCCc1ccccc1)n1cc(C(C)(C)C)nc(NCCc2cccs2)c1=O (stereo partly specified)
